In US9554987B2, “Methods and formulations for treating sialic acid deficiencies” (ULTRAGENYX PHARMACEUTICAL INC., priority 2010, dated 2017):

Tests used:
canine = assay: Canine chronic toxicology study; type: in vivo, dog; details: very highest 2,000 mg/kg dose level
male beagle dogs = assay: Clinical signs and body weight in the single dose dog study (Example 5); type: in vivo, beagle dog (Canis familiaris); details: study period
From the text: Before dosing initiation, all animals were weighed and assigned to treatment groups. At the start of treatment, animals were 7-16 months of age and ranged in weight as 6.4 to 9.4 kg. Animals were housed individually in stainless steel cages equipped with a mesh-type floor and an automatic watering valve. A standard certified pelleted commercial dog food (approximately 400 g of Certified Canine Diet 5C07, PMI Nutrition International, Inc.) was provided to each animal once daily, except during designated procedures. Maximum allowable concentrations of contaminants in the diet (e.g., heavy metals, aflatoxin, organophosphates, chlorinated hydrocarbons, PCBs) were controlled and routinely analyzed by the manufacturers. It was considered that there were no known contaminants in the food that could have interfered with the objectives of the study. Municipal tap water, which was softened, purified by reverse osmosis and exposed to ultraviolet light, was freely available except during designated procedures. It was considered that there were no known contaminants in the water that could have interfered with the objectives of the study. Each Animal was provided with a floor toy, except during designated activities.
Individual body weights were measured once during the predose period and prior to each dose on dosing days.

CC(=O)N[C@H]1[C@H]([C@H](O)[C@H](O)CO)OC(O)(C(=O)O)C[C@@H]1O (stereo partly drawn) [sialic acid, 5-N-acetylneuraminic acid]
finding in canine chronic toxicology study (canine): loosening of stools
treatment-related clinical signs (male beagle dogs; oral or intravenous administration): no treatment-related clinical signs
body weight or body weight gains (male beagle dogs): no treatment related changes in body weight or body weight gains
